Measurements: patent US9963451B2, “Fused ring pyrimidine compound and pest control agent containing the same” (Mitsui Chemicals Agro, Inc., priority 2013, dated 2018)

Experiments:
Pyricularia oryzae = assay: whole plant or invertebrate; assay type: in vivo
Callosobruchus chinensis = assay: Test Example 5: insecticidal test against Callosobruchus chinensis (petri dish dry film); assay type: in vivo; conditions: 24 h, read-out: insect death ratio
Protocol: Insecticidal Test Against Callosobruchus chinensis
1 ml of acetone solution in which a test compound had been diluted at a predetermined concentration was added dropwise to a petri dish having a diameter of 9 cm, and air dried, and then ten adults of Callosobruchus chinensis were released and the petri dish was covered. They were left to stand in an incubator at 25° C., and the numbers of living insects and dead insects were examined after 1 day. There was no series.

[1] = Pyricularia oryzae, 168 h, read-out: Rice blast control value

Structure (SMILES) | pest or weed control at 1000 ppm (Callosobruchus chinensis) | other results
C[C@@H](NC(=O)C(C#N)C(C)(C)C)c1ccc(Cl)cc1Cl (stereo partly shown) [Diclocymet, diclocymet] |  | pest or weed control at 1.5 ppm (Pyricularia oryzae; [1]): 95%
CC1(C)N=C(c2cnc3ccccc3c2)c2ccccc2C1(F)F [EE-1] |  | pest or weed control at 50 ppm (Pyricularia oryzae; [1]): 97%
CC1(C)N=C(c2cnc3ccccc3c2)c2cccc(F)c2C1(C)C [EE-2] |  | pest or weed control at 50 ppm (Pyricularia oryzae; [1]): 95%
CC1(C)N=C(c2cnc3ccccc3c2)c2cccc(F)c2C1(F)F [EE-3] |  | pest or weed control at 50 ppm (Pyricularia oryzae; [1]): 97%
CC(C)OC(=O)C(C(=O)OC(C)C)=C1SCCS1 [Isoprothiolane, isoprothiolane] |  | pest or weed control at 6 ppm (Pyricularia oryzae; [1]): 97%
N#Cc1ccccc1NC(=O)c1snc(Cl)c1Cl [Isotianil, isotianil] |  | Rice blast control value (Pyricularia oryzae; 1 ppm, spots counted 7 days later): 97
CNC(=O)/C(=N/OC)c1ccccc1CO/N=C(C)/C(=N/OC)C(/C)=N/OC [Orysastrobin, orysastrobin] |  | Rice blast control value (Pyricularia oryzae; 3.5 ppm, spots counted 7 days later): 95
C=CCOC1=NS(=O)(=O)c2ccccc21 [Probenazole, probenazole] |  | pest or weed control at 12 ppm (Pyricularia oryzae; [1]): 96%
CC(=O)Oc1c(C)c(C)nc2c(F)cc(C(C)(C)C)cc12 [Tebufloquin, tebufloquin] |  | Rice blast control value (Pyricularia oryzae; 100 ppm, spots counted 7 days later): 98
Cc1ccc(C(=O)NC[C@@H](NC(=O)OCC(F)(F)F)C(C)C)cc1 [Tolprocarb, tolprocarb] |  | Rice blast control value (Pyricularia oryzae; in vivo): 97
Cc1cccc2sc3nncn3c12 [Tricyclazole, tricyclazole] |  | pest or weed control at 2 ppm (Pyricularia oryzae; [1]): 98%; pest or weed control at 200 ppm (Pyricularia oryzae; [1]): 97%
Cc1cc(=O)n2nc(S(C)(=O)=O)nc2n1Cc1ccc(Cl)nc1 [compound 10, 4-((6-chloropyridin-3-yl)methyl)-5-methyl-2-(methylsulfonyl)-[1,2,4]triazolo[1,5-a]pyrimidin-7(4H)-one] | ≥ 70% | 
Cc1cc(=O)n2nc([S+](C)[O-])nc2n1Cc1ccc(Cl)nc1 (stereo not shown) [compound 26] | ≥ 70% | 
COc1nc2n(Cc3ccc(Cl)nc3)c(C)cc(=O)n2n1 [compound 45, 4-((6-chloropyridin-3-yl)methyl)-2-methoxy-5-methyl-[1,2,4]triazolo[1,5-a]pyrimidin-7(4H)-one] | ≥ 70% | 
Cc1cc(=O)n2nc(OCC(F)(F)F)nc2n1Cc1ccc(Cl)nc1 [compound 46] | ≥ 70% | 
Cc1cc(=O)n2nc(C(C)(F)F)nc2n1Cc1ccc(Cl)nc1 [compound 59] | ≥ 70% | 
Cc1cc(=O)n2nc(S(C)(=O)=NC#N)nc2n1Cc1ccc(Cl)nc1 (stereo not shown) [compound 76] | ≥ 70% | 
Cc1cc(=O)n2nc(-n3cccn3)nc2n1Cc1ccc(Cl)nc1 [compound 80] | ≥ 70% | 
CSc1nc2n(Cc3ccc(Cl)nc3)c(C)c/c(=N\O)n2n1 [compound 121, 4-((6-chloropyridin-3-yl)methyl)-5-methyl-2-(methylthio)-[1,2,4]triazolo[1,5-a]pyrimidin-7(4H)-oneoxime] | ≥ 70% | 
Cc1cc(=O)n2nc(S(=O)(=O)CC(F)(F)F)nc2n1Cc1ccc(Cl)nc1 [compound 190] | ≥ 70% | 
CC[S+]([O-])c1cc2n(Cc3ccc(Cl)nc3)c(C)cc(=O)n2n1 (stereo not shown) [compound 244] | ≥ 70% | 
Cc1cc(=O)n2nc(C(F)(F)F)cc2n1Cc1cnc(Cl)cc1Cl [compound 248] | ≥ 70% | 
CCSc1cc2n(Cc3cnc(Cl)c(F)c3)c(C)cc(=O)n2n1 [compound 252] | ≥ 70% | 
Cc1cc(=O)n2nc(C(F)(F)F)cc2n1Cc1cnc(Cl)c(F)c1 [compound 253] | ≥ 70% | 
CSc1cc2n(Cc3cnc(Cl)nc3)c(C)cc(=O)n2n1 [compound 299] | ≥ 70% | 
CSc1nc2n(Cc3cnc(Cl)c(F)c3)c(C)cc(=O)n2n1 [compound 306] | ≥ 70% | 
CSc1cc2n(Cc3cnc(Cl)c(F)c3)c(C)cc(=O)n2n1 [compound 307] | ≥ 70% | 
